The text below walks through data of US20170079979A1, “THERAPY FOR SOLID TUMORS” (Children's Hospital Medical Center, priority 2014, published 2017).

The structures appear in SMILES notation. Where a name gives a salt, the structure may show the parent alone.

The test system of one test is AU565 cells. As to the kind of experiment: AU565 breast cancer cell survival with NRG1 and lapatinib (FIG. 1). The format is cell-based. The following applies: for cell survival: concomitant inhibition of Dusp-1 by BCI and c-Fos by either curcumin or DFC (combination), FIG. 1 right panel. How it is done: AU565 cell line was established from the malignant pleural effusion of the mammary gland, which overexpresses the HER2. This class of tumors is treated by lapatinib. This treatment is not curative and relapse is common because cancer stem cells are not responsive to the treatment.

Another test relates to HCC827 cells. As to the kind of experiment: HCC827 lung cancer cell survival with HGF and erlotinib (FIG. 2). Format: cell-based. The following applies: concomitant inhibition of Dusp-1 by BCI and c-Fos by either curcumin or DFC (combination), FIG. 2 right panel. From the text: HCC827 cell line was derived from the lung adenocarcinoma. This lung adenocarcinoma has an acquired mutation in the EGFR tyrosine kinase domain (E746-A750 deletion). […] Most patients develop resistance by acquiring gatekeeper mutation the kinase domain and single TKI treatment is not curative because cancer stem cells are refractory to the treatment. In addition overexpression of growth factor HGF leading to activation of MET is a more frequent way of bypassing the EGFR mediated survival in this tumor model. Besides, cancer stem cells in the presence of growth factor are not addicted to the oncogene.

A further test deals with H1703 cells. As to the kind of experiment: H1703 lung sarcoma cell survival with EGF and sunitinib (FIG. 3). The format is cell-based. The conditions noted are these: concomitant inhibition of Dusp-1 by BCI and c-Fos by either curcumin or DFC (combination), FIG. 3 right panel. How it is done:
H1703 cell line was derived from the lung sarcoma, which is driven by PDGFRA as this cell line has amplified the PDGFRA. This group of patients is treated with sunitinib.

The next test concerns RT4 cells. As to the kind of experiment: RT4 bladder cancer cell survival with EGF and PLX4032 (FIG. 4). Format: cell-based. The conditions noted are these: FIG. 4 right panel; for cell survival: concomitant inhibition of Dusp-1 by BCI and c-Fos by either curcumin or DFC (combination). Here is the method:
To determine the effect of c-Fos and Dusp-1 inhibition with the tyrosine kinase inhibitor PLX4032, RT4 cells were assayed, as a model bladder cancer, shown in FIG. 4. This cell line was derived from bladder cancer patients, which has amplification of EGFR.

Another test relates to BaF3-BCR-ABL cells. The conditions noted are these: Imatinib combined with BCI, cited from earlier work.
The subject of a further test is parental BaF3 cells. The following applies: cited from earlier work; for effect of the drug combination: Imatinib combined with BCI.
Test [1] has as its system leukemia initiating cells (LIC). The following applies: cited from earlier work.

As for `O=C1/C(=C/c2ccccc2)C(NC2CCCCC2)c2ccccc21` (centres unmarked) [BCI, (E)-2-benzylidene-3-(cyclohexylamino)-2,3-dihydro-1H-inden-1-one], the cell survival result with AU565 cells, with HCC827 cells, in the test with H1703 cells and with RT4 cells was “completely suppresses the cell survival” throughout. Moreover, the “effect of the drug combination” value in the test on BaF3-BCR-ABL cells (BCR-ABL positive cells) and in the test on parental BaF3 cells was “no effect” throughout. The “sensitivity in cell proliferation assay” value with BaF3-BCR-ABL cells (BaF3-BCR-ABL cells with c-Fos knockdown) is recorded as “fully sensitive”.

Regarding `Cc1ccc(NC(=O)c2ccc(CN3CCN(C)CC3)cc2)cc1Nc1nccc(-c2cccnc2)n1` [Imatinib, Imatinib mesylate], the “effect of the drug combination” value in the test on parental BaF3 cells is “no effect”. In the test with parental BaF3 cells (inhibition of c-Fos and Dusp-1 together with Imatinib treatment), the survival and apoptosis entry is “no effect”. For the same compound, in test [1], the “survival of patients with leukemia” value was “improved the survival”. Besides, the “elimination of leukemia initiating cells (LIC)” value in test [1] (patients with leukemia) is reported as “did not eliminate”.

Regarding `COc1cc(/C=C/C(=O)C(=Cc2ccc(F)c(F)c2)C(=O)/C=C/c2ccc(O)c(OC)c2)ccc1O` [DFC, difluorinated curcumin], the cell survival result with AU565 cells, with H1703 cells and in the test with RT4 cells was “completely suppresses the cell survival” each time.

As to `COc1cc(/C=C/C(=O)CC(=O)/C=C/c2ccc(O)c(OC)c2)ccc1O` [curcumin], the cell survival entry in the test on AU565 cells, in the test with HCC827 cells, in the test on H1703 cells and in the test on RT4 cells was “completely suppresses the cell survival” each time. The “relative potency of the BCI combination (curcumin versus DFC)” value with RT4 cells (combination with BCI) is on record as “more potent”.

With `CS(=O)(=O)CCNCc1ccc(-c2ccc3ncnc(Nc4ccc(OCc5cccc(F)c5)c(Cl)c4)c3c2)o1` [lapatinib], the “TKI response on addition of growth factor” value with AU565 cells (addition of NRG1, lapatinib) is “confer resistance”.
